Reference: patent US20140263071A1, “METHOD FOR COLLECTING METALS” (CHEMEC OY AB, priority 2011, published 2014)

Columns and labels:
[1] = Effect of contact time on expulsion percent, Pb^2+ and Hg^2+ spiked TS 5, 1a 100 mg/100 ml (Example 13)
Method: A test solution containing 1-15 mg/l of Al^3+, Fe^2/3+, Mg^2+, Mn^2+, Ni^2+ and Zn^2+; 0.1-0.9 mg/l of Ca^2+ and Na^+; and trace amount of other Cr^3+, Co^2+, Cu^2+, Eu^3+, La^3+, Nd^3+, Y^3+, UO2^2+ and Nb^5+ cations were prepared.
Effect of contact time to selected metal expulsion per cents was tested using TS 5 with comlexation agent 1a. TS 5 (100 ml), spiked with known amounts of lead (Pb^2+) and mercury (Hg^2+) cations, was stirred with 1a (100 mg) for selected times followed by separation of 1a by filtration trough 0.2 μm syringe filter. Metal concentrations after 5 min, 15 min, 30 min, 1 h, 2 h, 3.5 h, 6.5 h and 29.5 h were determined by using ICP-AES analysis.

[2] = Maximum expulsion percent of single metal cations from water solution (Example 8)
Method: A water solution (110 ml) containing known amount of single cationic element or elements, typically 0.5-200 ppm, was prepared from Merch Titrisol® standard solution. After adjusting pH by using acid (e.g. HCl or HNO3) or base (e.g. NaOH) to desired initial value, sample A (10 ml) was taken followed by adding 100 mg of selected solid complexation agent. The mixture was stirred at room temperature for 24 h and sample B (10 ml) was taken. Samples A and B were filtrated separately trough 0.2 μm syringe filter and the concentration of the studied element or elements in both solution was determined by using atomic absorption spectrophotometer. The expulsion percent was determined from the concentration differences between the sample solutions A and B.
The maximum expulsion percent and pH value in which the value was achieved was determined for each single cationic element using the general procedure mentioned above.

SMILES: NCCCCCCCCCCC(O)(P(=O)(O)O)P(=O)(O)O [Compound 1a, 11-Amino-1-hydroxyundecane-1,1-diyldiphosphonic acid]
- Expulsion [%] ([1]; Al^3+, 5 min): 8.3%
- Expulsion [%] ([1]; Al^3+, 15 min): 5.5%
- Expulsion [%] ([1]; Al^3+, 30 min): 7.1%
- Expulsion [%] ([1]; Al^3+, 60 min): 5.9%
- Expulsion [%] ([1]; Al^3+, 120 min): 8.7%
- Expulsion [%] ([1]; Al^3+, 210 min): 18.5%
- Expulsion [%] ([1]; Al^3+, 390 min): 26.0%
- Expulsion [%] ([1]; Al^3+, 1770 min): 27.2%
- Expulsion [%] ([1]; Ca^2+, 5 min): 2.7%
- Expulsion [%] ([1]; Ca^2+, 15 min): 0%
- Expulsion [%] ([1]; Ca^2+, 30 min): 0%
- Expulsion [%] ([1]; Ca^2+, 60 min): 0%
- Expulsion [%] ([1]; Ca^2+, 120 min): 0%
- Expulsion [%] ([1]; Ca^2+, 210 min): 0%
- Expulsion [%] ([1]; Ca^2+, 390 min): 9.8%
- Expulsion [%] ([1]; Ca^2+, 1770 min): 18.7%
- Expulsion [%] ([1]; Cd^2+, 5 min): 2.9%
- Expulsion [%] ([1]; Cd^2+, 15 min): 3.9%
- Expulsion [%] ([1]; Cd^2+, 30 min): 5.1%
- Expulsion [%] ([1]; Cd^2+, 60 min): 7.5%
- Expulsion [%] ([1]; Cd^2+, 120 min): 10.9%
- Expulsion [%] ([1]; Cd^2+, 210 min): 15.0%
- Expulsion [%] ([1]; Cd^2+, 390 min): 28.1%
- Expulsion [%] ([1]; Cd^2+, 1770 min): 36.6%
- Expulsion [%] ([1]; Fe^2/3+, 5 min): 0%
- Expulsion [%] ([1]; Fe^2/3+, 15 min): 0.7%
- Expulsion [%] ([1]; Fe^2/3+, 30 min): 0%
- Expulsion [%] ([1]; Fe^2/3+, 60 min): 3.0%
- Expulsion [%] ([1]; Fe^2/3+, 120 min): 6.7%
- Expulsion [%] ([1]; Fe^2/3+, 210 min): 8.9%
- Expulsion [%] ([1]; Fe^2/3+, 390 min): 20.7%
- Expulsion [%] ([1]; Fe^2/3+, 1770 min): 19.3%
- Expulsion [%] ([1]; Hg^2+, 5 min): 59.9%
- Expulsion [%] ([1]; Hg^2+, 15 min): 60.4%
- Expulsion [%] ([1]; Hg^2+, 30 min): 58.5%
- Expulsion [%] ([1]; Hg^2+, 60 min): 56.4%
- Expulsion [%] ([1]; Hg^2+, 120 min): 57.1%
- Expulsion [%] ([1]; Hg^2+, 210 min): 55.7%
- Expulsion [%] ([1]; Hg^2+, 390 min): 57.0%
- Expulsion [%] ([1]; Hg^2+, 1770 min): 49.6%
- Expulsion [%] ([1]; Mg^2+, 5 min): 1.4%
- Expulsion [%] ([1]; Mg^2+, 15 min): 1.8%
- Expulsion [%] ([1]; Mg^2+, 30 min): 0.2%
- Expulsion [%] ([1]; Mg^2+, 60 min): 4.4%
- Expulsion [%] ([1]; Mg^2+, 120 min): 5.8%
- Expulsion [%] ([1]; Mg^2+, 210 min): 6.9%
- Expulsion [%] ([1]; Mg^2+, 390 min): 16.4%
- Expulsion [%] ([1]; Mg^2+, 1770 min): 19.8%
- Expulsion [%] ([1]; Mn^2+, 5 min): 3.4%
- Expulsion [%] ([1]; Mn^2+, 15 min): 4.3%
- Expulsion [%] ([1]; Mn^2+, 30 min): 4.3%
- Expulsion [%] ([1]; Mn^2+, 60 min): 6.3%
- Expulsion [%] ([1]; Mn^2+, 120 min): 10.5%
- Expulsion [%] ([1]; Mn^2+, 210 min): 13.1%
- Expulsion [%] ([1]; Mn^2+, 390 min): 27.0%
- Expulsion [%] ([1]; Mn^2+, 1770 min): 29.1%
- Expulsion [%] ([1]; Ni^2+, 5 min): 1.4%
- Expulsion [%] ([1]; Ni^2+, 15 min): 1.8%
- Expulsion [%] ([1]; Ni^2+, 30 min): 1.4%
- Expulsion [%] ([1]; Ni^2+, 60 min): 4.1%
- Expulsion [%] ([1]; Ni^2+, 120 min): 5.0%
- Expulsion [%] ([1]; Ni^2+, 210 min): 7.8%
- Expulsion [%] ([1]; Ni^2+, 390 min): 13.2%
- Expulsion [%] ([1]; Ni^2+, 1770 min): 15.5%
- Expulsion [%] ([1]; Pb^2+, 5 min): 28.5%
- Expulsion [%] ([1]; Pb^2+, 15 min): 34.7%
- Expulsion [%] ([1]; Pb^2+, 30 min): 56.3%
- Expulsion [%] ([1]; Pb^2+, 60 min): 49.4%
- Expulsion [%] ([1]; Pb^2+, 120 min): 65.7%
- Expulsion [%] ([1]; Pb^2+, 210 min): 89.8%
- Expulsion [%] ([1]; Pb^2+, 390 min): 94.6%
- Expulsion [%] ([1]; Pb^2+, 1770 min): 98.1%
- Expulsion [%] ([1]; Zn^2+, 5 min): 2.5%
- Expulsion [%] ([1]; Zn^2+, 15 min): 3.7%
- Expulsion [%] ([1]; Zn^2+, 30 min): 4.9%
- Expulsion [%] ([1]; Zn^2+, 60 min): 6.5%
- Expulsion [%] ([1]; Zn^2+, 120 min): 9.8%
- Expulsion [%] ([1]; Zn^2+, 210 min): 13.9%
- Expulsion [%] ([1]; Zn^2+, 390 min): 27.1%
- Expulsion [%] ([1]; Zn^2+, 1770 min): 30.8%
- Expulsion-% (maximum) ([2]; Ag^+, pH 2.0, initial 1 ppm): 100%
- Expulsion-% (maximum) ([2]; Al^3+, pH 2.1, initial 10 ppm): 96.9%
- Expulsion-% (maximum) ([2]; Au^3+, pH 0.5, initial 1 ppm): 63.3%
- Expulsion-% (maximum) ([2]; Ba^2+, pH 3.0, initial 10 ppm): 90.2%
- Expulsion-% (maximum) ([2]; Bi^3+, pH 3.0, initial 10 ppm): 100%
- Expulsion-% (maximum) ([2]; Ca^2+, pH 2.6, initial 2 ppm): 69.9%
- Expulsion-% (maximum) ([2]; Cd^2+, pH 3.6, initial 0.5 ppm): 97.3%
- Expulsion-% (maximum) ([2]; Co^2+, pH 3.4, initial 1 ppm): 85.0%
- Expulsion-% (maximum) ([2]; Cr^3+, pH 3.1, initial 2 ppm): 97.2%
- Expulsion-% (maximum) ([2]; Cr^6+, pH 6.6, initial 2 ppm): 0%
- Expulsion-% (maximum) ([2]; Cu^2+, pH 3.5, initial 2 ppm): 95.7%
- Expulsion-% (maximum) ([2]; Cu^+, pH 2.4, initial 2 ppm): 85.3%
- Expulsion-% (maximum) ([2]; Eu^3+, pH 4.0, initial 5 ppm): 85.3%
- Expulsion-% (maximum) ([2]; Fe^2+, pH 6.5, initial 1 ppm): 93.0%
- Expulsion-% (maximum) ([2]; Fe^3+, pH 3.1, initial 1 ppm): 98.9%
- Expulsion-% (maximum) ([2]; Ga^3+, pH 0.5, initial 50 ppm): 1.0%
- Expulsion-% (maximum) ([2]; Gd^3+, pH 1.5, initial 100 ppm): 0%
- Expulsion-% (maximum) ([2]; Hg^2+, pH 5.0, initial 0.1 ppm): 93.0%
- Expulsion-% (maximum) ([2]; Hg^+, pH 3.0, initial 1 ppm): 89.4%
- Expulsion-% (maximum) ([2]; In^3+, pH 2.1, initial 20 ppm): 73.4%
- Expulsion-% (maximum) ([2]; Ir^3+, pH 0.6, initial 100 ppm): 66.1%
- Expulsion-% (maximum) ([2]; K^+, pH 4.2, initial 1 ppm): 0%
- Expulsion-% (maximum) ([2]; La^3+, pH 3.0, initial 100 ppm): 54.1%
- Expulsion-% (maximum) ([2]; Li^+, pH 3.9, initial 0.5 ppm): 4.8%
- Expulsion-% (maximum) ([2]; Mg^2+, pH 2.9, initial 0.5 ppm): 64.3%
- Expulsion-% (maximum) ([2]; Mn^2+, pH 3.4, initial 1 ppm): 93.8%
- Expulsion-% (maximum) ([2]; Mo^6+, pH 8.9, initial 10 ppm): 80.8%
- Expulsion-% (maximum) ([2]; Na^+, pH 3.9, initial 0.5 ppm): 0%
- Expulsion-% (maximum) ([2]; Nb^5+, pH 8.5, initial 100 ppm): 100%
- Expulsion-% (maximum) ([2]; Nd^3+, pH 4.1, initial 100 ppm): 98.1%
- Expulsion-% (maximum) ([2]; Ni^2+, pH 3.3, initial 1 ppm): 78.6%
- Expulsion-% (maximum) ([2]; Os^4+, pH 0.5, initial 100 ppm): 85.8%
- Expulsion-% (maximum) ([2]; Pb^2+, pH 3.2, initial 5 ppm): 99.6%
- Expulsion-% (maximum) ([2]; Pd^2+, pH 8.0, initial 5 ppm): 77.8%
- Expulsion-% (maximum) ([2]; Pt^2+, pH 0.5, initial 25 ppm): 70.0%
- Expulsion-% (maximum) ([2]; Rh^3+, pH 4.0, initial 10 ppm): 77.7%
- Expulsion-% (maximum) ([2]; Ru^3+, pH 2.0, initial 10 ppm): 48.5%
- Expulsion-% (maximum) ([2]; Sb^3+, pH 3.0, initial 10 ppm): 100%
- Expulsion-% (maximum) ([2]; Sc^3+, pH 2.0, initial 5 ppm): 100%
- Expulsion-% (maximum) ([2]; Si^4+, pH 1.0, initial 50 ppm): 1.3%
- Expulsion-% (maximum) ([2]; Sn^2+, pH 7.0, initial 50 ppm): 98.1%
- Expulsion-% (maximum) ([2]; Sn^4+, pH 10.3, initial 200 ppm): 100%
- Expulsion-% (maximum) ([2]; Sr^2+, pH 5.0, initial 2 ppm): 93.2%
- Expulsion-% (maximum) ([2]; Ti^4+, pH 9.8, initial 50 ppm): 48.8%
- Expulsion-% (maximum) ([2]; U^6+, pH 3.4, initial 2.5 ppm): 87.6%
- Expulsion-% (maximum) ([2]; V^4+, pH 0.5, initial 100 ppm): 69.3%
- Expulsion-% (maximum) ([2]; W^6+, pH 1.6, initial 50 ppm): 12.0%
- Expulsion-% (maximum) ([2]; Y^3+, pH 2.1, initial 25 ppm): 89.1%
- Expulsion-% (maximum) ([2]; Zn^2+, pH 3.7, initial 0.5 ppm): 94.7%
- Expulsion-% (maximum) ([2]; Zr^4+, pH 0.5, initial 100 ppm): 81.5%
